Consider 13 compounds from ChEMBL document CHEMBL1149765, “Anti-tumor 12-deoxyphorbol esters from Euphorbia cornigera” (Eur J Med Chem, 2008).

Assay [1] concerns KB. Briefly: Cytotoxicity against human KB cells by MTT assay. Format: functional, cell-based. Background: Tetrazolium dyes change colour on reduction, which living cells bring about.
For assay [2], the system named is KB. Briefly: Cytotoxicity against human KB cells assessed as viable cells at 2.5 ug/ml by trypan blue exclusion assay. It counts as functional. The following applies: read-out: Activity.
Assay [3] concerns KB. Briefly: Cytotoxicity against human KB cells assessed as necrotic cells at 5.0 ug/ml by trypan blue exclusion assay. It counts as functional.
Assay [4] relates to KB. Put plainly: Inhibition of DNA synthesis in human KB cells assessed as 5-bromo-2'-deoxyuridin incorporation at 2.5 ug/ml. Format: functional.
The test system of assay [5] is KB. Briefly: Cytotoxicity against human KB cells assessed as apoptotic cells at 5.0 ug/ml by trypan blue exclusion assay. Format: functional.
For assay [6], the system named is KB. Briefly: Cytotoxicity against human KB cells assessed as viable cells at 5.0 ug/ml by trypan blue exclusion assay. Format: functional. The settings on record: read-out: Activity.
For assay [7], the system named is KB. Put plainly: Cytotoxicity against human KB cells assessed as apoptotic cells at 1.0 ug/ml by trypan blue exclusion assay. It counts as functional.
For assay [8], the system named is KB. Put plainly: Inhibition of DNA synthesis in human KB cells assessed as ratio of DNA in treated to control cells at 2.5 ug/ml. Format: functional.
The subject of assay [9] is KB. Briefly: Cytotoxicity against human KB cells assessed as necrotic cells at 2.5 ug/ml by trypan blue exclusion assay. Format: functional.
Assay [10] concerns KB. Put plainly: Cytotoxicity against human KB cells assessed as apoptotic cells at 2.5 ug/ml by trypan blue exclusion assay. It counts as functional.
Assay [11] has as its system KB. Put plainly: Inhibition of DNA synthesis in human KB cells assessed as ratio of DNA in treated to control cells at 1.0 ug/ml. It counts as functional.
Assay [12] has as its system KB. Put plainly: Inhibition of DNA synthesis in human KB cells assessed as 5-bromo-2'-deoxyuridin incorporation at 5.0 ug/ml. Format: functional.
Assay [13] deals with KB. Briefly: Cytotoxicity against human KB cells assessed as necrotic cells at 1.0 ug/ml by trypan blue exclusion assay. It counts as functional.
The subject of assay [14] is KB. Briefly: Cytotoxicity against human KB cells assessed as viable cells at 1.0 ug/ml by trypan blue exclusion assay. It counts as functional. The settings on record: read-out: Activity.
In assay [15] the test system is KB. Put plainly: Cytotoxicity against human KB cells assessed as necrotic cells at 0.3 ug/ml by trypan blue exclusion assay. It counts as functional.
The subject of assay [16] is KB. Put plainly: Cytotoxicity against human KB cells assessed as viable cells at 0.3 ug/ml by trypan blue exclusion assay. The settings on record: read-out: Activity. Format: functional.
For assay [17], the system named is KB. Briefly: Cytotoxicity against human KB cells assessed as apoptotic cells at 0.3 ug/ml by trypan blue exclusion assay. It counts as functional.
Assay [18] deals with KB. Put plainly: Inhibition of DNA synthesis in human KB cells assessed as ratio of DNA in treated to control cells at 0.3 ug/ml. Format: functional.
In assay [19] the test system is KB. Briefly: Inhibition of DNA synthesis in human KB cells assessed as 5-bromo-2'-deoxyuridin incorporation at 0.3 ug/ml. Format: functional.

≈ marks a conversion by molar mass, not a printed value.

Broadly, the IC50 is the concentration that inhibits the measured activity by half. A low value points to inhibition by little substance. With `CCCCCCCCCC(=O)OCC1=C[C@H]2[C@@H]3C(C)(C)[C@]3(OC(C)=O)C[C@@H](C)[C@]2(O)[C@@H]2C=C(C)C(=O)[C@@]2(O)C1`, inhibition in the assay with KB [1] was half-maximal at 8.5 µg/mL (≈ 15.6 µM) (IC50).

In the case of `CC(=O)O[C@@]12C[C@@H](C)[C@@]3(O)[C@@H](C=C(COC(=O)c4ccccc4)C[C@]4(O)C(=O)C(C)=C[C@@H]34)[C@@H]1C2(C)C`, the concentration for half-maximal inhibition (IC50) in the assay on KB [1] is 8.2 µg/mL (≈ 16.6 µM).

In turn, `CC(=O)O[C@@]12C[C@@H](C)[C@@]3(O)[C@@H](C=C(CO)C[C@]4(O)C(=O)C(C)=C[C@@H]34)[C@@H]1C2(C)C` [PROSTRATIN] had an IC50 with KB [1] of 1000 µg/mL (≈ 2560 µM).

A word on the inhibition: it is how much of the control response was suppressed. Regarding `CCCCCCCCCC(=O)OCC1=C[C@H]2[C@@H]3C(C)(C)[C@]3(OC(=O)CCCCCCCCC)C[C@@H](C)[C@]2(O)[C@@H]2C=C(C)C(=O)[C@@]2(O)C1`, in the assay on KB [2], the viability at 2.5 µg/mL came to 36.7%. Further, the Activity in the assay on KB [3] was found to be 6%; in the assay on KB [5], 78.13%; in the assay on KB [7], 39.24%; in the assay on KB [9], 3%; with KB [10], 60.29%; with KB [13], 2%. In addition, the inhibition at 2.5 µg/mL with KB [4] was 86%. Also, in the assay with KB [6], the viability at 5 µg/mL worked out at 15.9%. For the same compound, the Ratio with KB [8] came to 0.71; with KB [11], 0.57. The inhibition at 5 µg/mL with KB [12] is 27.9%. Moreover, the IC50 in the assay on KB [1] came out at 0.5 µg/mL (≈ 0.761 µM). For the same compound, the viability at 1 µg/mL with KB [14] turned out to be 58.8%.

The compound `COc1cccc2c1C(=O)c1c(O)c3c(c(O)c1C2=O)C[C@@](O)(C(=O)CO)C[C@@H]3O[C@H]1C[C@H](N)[C@H](O)[C@H](C)O1.Cl` [DOXORUBICIN HYDROCHLORIDE] showed an IC50 in the assay on KB [1] of 10 µg/mL.

In the assay with KB [1], `CCCCCCCCCC(=O)OCC1=C[C@H]2[C@@H]3C(C)(C)[C@]3(OC(=O)CCCCC)C[C@@H](C)[C@]2(O)[C@@H]2C=C(C)C(=O)[C@@]2(O)C1` displayed an IC50 of 7.2 µg/mL (≈ 12 µM).

Regarding `C/C=C(\C)C(=O)OCC1=C[C@H]2[C@@H]3C(C)(C)[C@]3(OC(=O)CCCCCCCCC)C[C@@H](C)[C@]2(O)[C@@H]2C=C(C)C(=O)[C@@]2(O)C1`, in the assay on KB [1], the IC50 was 7.6 µg/mL (≈ 13 µM).

`C/C=C(/C)C(=O)OCC1=C[C@H]2[C@@H]3C(C)(C)[C@]3(OC(=O)CCCCCCCCC)C[C@@H](C)[C@]2(O)[C@@H]2C=C(C)C(=O)[C@@]2(O)C1` registered a 50% inhibitory concentration (IC50) in the assay on KB [1] of 6.4 µg/mL (≈ 10.9 µM).

Regarding `CCCCCCCCCCCC(=O)O[C@@]12C[C@@H](C)[C@@]3(O)[C@@H](C=C(COC(=O)CCCCCCCCC)C[C@]4(O)C(=O)C(C)=C[C@@H]34)[C@@H]1C2(C)C`, the viability at 2.5 µg/mL with KB [2] amounted to 46.7%. Also, the Activity in the assay with KB [3] was found to be 2%; in the assay with KB [5], 70.13%; in the assay on KB [7], 11.24%; in the assay with KB [9] it was 1%; with KB [10], 52.23%; in the assay on KB [13], 0%. Further, the inhibition at 2.5 µg/mL in the assay on KB [4] is 76%. Moreover, the viability at 5 µg/mL in the assay on KB [6] was 27.9%. The Ratio with KB [8] stood at 0.51; with KB [11], 0.47. Besides, the inhibition at 5 µg/mL with KB [12] was 25.9%. The compound further displayed an IC50 in the assay on KB [1] of 1 µg/mL (≈ 1.46 µM). In addition, the viability at 1 µg/mL in the assay with KB [14] worked out at 78.8%.

`COc1cccc2c1C(=O)c1c(O)c3c(c(O)c1C2=O)C[C@@](O)(C(=O)CO)C[C@@H]3O[C@H]1C[C@H](N)[C@H](O)[C@H](C)O1` [DOXORUBICIN]: the Activity in the assay with KB [15] is recorded as 1%; in the assay with KB [17] it was 61.33%. The viability at 0.3 µg/mL in the assay with KB [16] worked out at 37.7%. For the same compound, in the assay on KB [18], the Ratio was determined as 0.57. The inhibition at 0.3 µg/mL in the assay on KB [19] worked out at 37.7%.

For `CCCCCCCCCC(=O)OCC1=C[C@H]2[C@@H]3C(C)(C)[C@]3(OC(=O)CCCCCCC)C[C@@H](C)[C@]2(O)[C@@H]2C=C(C)C(=O)[C@@]2(O)C1`, the viability at 2.5 µg/mL in the assay with KB [2] worked out at 65%. Also, the Activity in the assay on KB [3] is given as 3%; with KB [5], 70.89%; in the assay on KB [7] it was 25.23%; in the assay with KB [9] it was 1%; in the assay on KB [10], 34%; with KB [13], 0%. Besides, the inhibition at 2.5 µg/mL in the assay with KB [4] is 85%. For the same compound, the viability at 5 µg/mL in the assay with KB [6] worked out at 26.1%. Further, the values for the Ratio in the assay on KB [8] and with KB [11] were 0.71 and 0.87, respectively. Moreover, the inhibition at 5 µg/mL in the assay with KB [12] worked out at 23%. The midpoint of inhibition in the assay on KB [1], the IC50, lay at 0.8 µg/mL (≈ 1.27 µM). In addition, the viability at 1 µg/mL in the assay on KB [14] was 74.7%.

`COc1ccc(C(=O)OCC2=C[C@H]3[C@@H]4C(C)(C)[C@]4(OC(C)=O)C[C@@H](C)[C@]3(O)[C@@H]3C=C(C)C(=O)[C@@]3(O)C2)cc1` gave an IC50 in the assay on KB [1] of 8.5 µg/mL (≈ 16.2 µM).

In turn, `CCCCCCCCCC(=O)OCC1=C[C@H]2[C@@H]3C(C)(C)[C@]3(OC(=O)CCC)C[C@@H](C)[C@]2(O)[C@@H]2C=C(C)C(=O)[C@@]2(O)C1` came in with an IC50 in the assay with KB [1] of 7.8 µg/mL (≈ 13.6 µM).
